Laboratory results reported in patent EP4501112A1, “PLANT DEFENSE ELICITORS” (Globachem NV, priority 2023, dated 2025).

Assays:
Assay type in all cases: in vivo
[1] = tested on: Root knot nematode (Meloidogyne graminicola); assay: Root knot nematode gall development on wheat roots after treatment; conditions: foliar spraying, stock solution 200 x diluted; 400 J2 per plant 24 hours after treatment; 14 days after inoculation
Description: DISEASE/PEST: Root knot nematode (Meloidogyne graminicola) CROP: Triticum aestivum APPLICATION: Foliar application EXPERIMENT/TRIAL PROTOCOL: After seed germination, wheat plants were grown individually for 2 weeks in a PVC tube (18 cm height, 3 cm diameter) filled with a substrate of sand and a water-absorbing polymer (DCM Aquaperla). Plants were grown at 24 °C and supplied with Hoagland solution and water 3 times per week. They were treated after 2 weeks. Twenty-four hours after treatment they were inoculated with 400 nematode juveniles (second stage; J2) per plant. 8 individual plants were analyzed per treatment. Evaluation of nematode infection was done 14 days after inoculation. Development of galls on the roots was microscopically observed and counted. No females were observed yet at this early time point, in any of the treatments. The number of galls was reduced in the […], pelargonic acid ([…] decanoic acid (pm4) treated plants. Azelaic acid (pm3) had no effect on gall numbers in the used concentration. FORMULATION USED: […] PM1 is already formulated.

[2] = tested on: English grain aphid (Sitobion avenae); assay: Survival of S. avenae on wheat after foliar spray (greenhouse pots); conditions: 0.65 g pelargonic acid in 500 mL water
Description: DISEASE/PEST: English grain aphid (Sitobion avenae) CROP: WHEAT (Triticum aestivum) APPLICATION: FOLIAR PROTOCOL: T. aestivum plants were grown in pots (8x8 cm) in the greenhouse until reaching a height of 10 cm. Each pot contained 50 seeds. Each treatment consisted of 3 replicates. Plants were sprayed with a handheld sprayer containing 0.65 g of pelargonic acid in 500 mL of water for the 3 replicates. Control plants were sprayed with water. Spraying solutions (as noted in the Table 1) were prepared freshly before treatment. S. avenae (N=10) were added 1 hour after spraying. Insects were counted, 1, 4, 6, 12 and 14 days after the treatment applied. Table 1. Efficacy assessment survival of S. avenae on T. aestivum (number of aphids)

[3] = tested on: S. avenae; assay: Aphid survival and sucking on untreated leaves after treating one leaf of Chinese cabbage; design: key to S. avenae sucking: 0=no damage or no sucking observed; 1=some damage or some sucking observed; 3=half leaf eaten or half of aphids sucking the leaf; 5=no leaf left or all insects sucking and reproducing; conditions: for S. avenae sucking: scale 0 - 5
[4] = tested on: S. exigua; assay: Direct feeding of pelargonic acid (comparative example 1c); conditions: Table 3 is an image
Text: Example 1c. Direct effect pelargonic acid (Comparative example) [table]

[5] = tested on: Cacopsylly pyri; assay: Field trial, foliar spray against C. pyri on pear trees; conditions: 650 g/ha
Text: DISEASE/PEST: Cacopsylly pyri CROP: Pear trees (pyrus communis spp. Williams) APPLICATION: Foliar spray (spring - when 50% of eggs are yellow) EXPERIMENT/TRIAL PROTOCOL: Foliar spray was applied in the field with a motorized sprayer (OleomacSP126) in spring when the insects appeared on the crop (BBCH 72-75). The trial design consisted of a randomized complete block with 4 replications per treatment. The treated area per plot was 24m^2. Used water volume was […]/ha. Evaluation was done by counting nymphs per 10 shoots. […] This is due to the effect on the plant's immune system. […] Table 6. Efficacy assessment: % efficacy versus untreated (%UNCK) of C. pyri on P. communis (field)

## CCCCCCCCC(=O)O [Pelargonic acid, pelargonic acid]
[1]
  number of galls: reduced
[2]; 4 DAT
  survival of S. avenae on T. aestivum (number of aphids): 4.2
[2]; 6 DAT
  survival of S. avenae on T. aestivum (number of aphids): 7.4
[2]; 10 aphids added 1 hour after spraying, 1 DAT
  survival of S. avenae on T. aestivum (number of aphids): 3
[2]; 12 DAT
  survival of S. avenae on T. aestivum (number of aphids): 9.6
[2]; 14 DAT
  survival of S. avenae on T. aestivum (number of aphids): 15
[3]; 0.78 mg on one leaf, insects added 1h after treatment, 6 DAT
  S. avenae sucking: 4
[3]; 0.78 mg on one leaf, insects added 1h after treatment, 24h AT
  S. avenae sucking: 0
[3]; 0.78 mg on one leaf, insects added 24 h after treatment, 6 DAT
  S. avenae sucking: 1
[3]; 0.78 mg on one leaf, insects added 24 h after treatment, 24h AT
  S. avenae sucking: 4
[3]; 0.78 mg on one leaf, insects on non-treated leaves, added 24 h after treatment, 6 DAT
  S. avenae survival: Very small colony
[3]; 0.78mg, insects introduced 24h after treatment to an untreated leaf of the same plant
  number of S. avenae individuals and sucking: reduction
[4]
  direct control of S. exigua: no direct control
[5]; 14 DAA
  % efficacy versus untreated (%UNCK) of C. pyri on P. communis (field): 56.4 b %
[5]; 21 DAA
  % efficacy versus untreated (%UNCK) of C. pyri on P. communis (field): 63.1 b %
[5]; 28 DAA
  % efficacy versus untreated (%UNCK) of C. pyri on P. communis (field): 100 b %
[5]; 800L/ha water, 3 DAA
  % efficacy versus untreated (%UNCK) of C. pyri on P. communis (field): 83.8 b %
